In patent US12661316B2, “Creatine and/or creatinine compositions and related methods” (ThermoLife International, LLC, priority 2018, dated 2026):
Where two headings read alike, the source gives them in different places.

Tests used:
[1] = Human study: side effects, liver and kidney function (Example 7); assay type: in vivo
[2] = cited from earlier work
[3] = Chemical stability of creatine nitrate, creatine monohydrate and buffered creatine in pH 2.5 and pH 6.8 buffer; details: for pH of samples, initial: start of 12 days; for pH of samples, final: within a period of 12 days; for degradation rate constant: about 10 mg/ml
Method: The chemical stability of creatine nitrate (CN), creatine monohydrate (CM), and buffered creatine (BC) were examined under two different storage conditions: (1) 37° C. in pH 2.5 buffer and (2) 40° C. in pH 6.8 buffer. A concentration of about 10 mg/ml of CN, CM and BC were prepared in both pH 2.5 and pH 6.8 buffer and stored in stability chambers in screw capped bottles at 37° C. and 40° C., respectively.

[4] = dosages up to 30 g for a few days; human subject; cited from earlier work
[5] = with caffeine intake; cited from earlier work
[6] = cited from earlier work; for creatine degraded: three days of storage at 25° C.
[7] = radiokinetic bioavailability study; cited from earlier work
[8] = normal human volunteers who had ingested creatinine; cited from earlier work
[9] = injection of creatinine; mice; cited from earlier work
human blood cells = details: addition of creatinine to human blood cells; cited from earlier work
[10] = dogs; cited from earlier work

For `CN(CC(=O)O)C(=N)N.O` [CM, creatine monohydrate], the “negative side effects (side effect reporting questionnaire)” value ([1]; in vivo) is given as “one subject reported gastrointestinal disturbances”, the degradation in solution ([2]; refrigerated) is given as “slowed the rate of degradation” and the degradation in solution ([2]; stored at room temperature) is given as “degraded into creatinine within several days”. For the same compound, the “pH of samples, initial” value ([3]; 37° C. in pH 2.5 buffer) was 3.08±0.01, the “pH of samples, final” value ([3]; 37° C. in pH 2.5 buffer) was 4.12±0.01 and the “increase of total creatine content in skeletal muscles” value [4] was “more than 20%”.

For `CN(CC(=O)O)C(=N)N.O=[N+]([O-])O` [CN, creatine nitrate], the “negative side effects (side effect reporting questionnaire)” value ([1]; ten human volunteers, nine did not report any negative side effects) was “one subject reported gastrointestinal disturbances”, the degradation rate constant ([3]; 37° C. in pH 2.5 buffer) was 0.075±0.001 per day and the degradation rate constant ([3]; 40° C. in pH 6.8 buffer) was 0.115±0.001 per day. The “pH of samples, initial” value ([3]; 40° C. in pH 6.8 buffer) was 2.83±0.01 and the “pH of samples, final” value ([3]; 40° C. in pH 6.8 buffer) was 4.31±0.01.

For `CN(CC(=O)O)C(=N)N` [creatine], the “ergogenic effect on muscle” value [5] is listed as “completely eliminated”, the stability in solution ([6]; neutral pH (7.5 or 6.5)) is listed as “relatively stable” and the creatine degraded ([6]; pH 3.5) is listed as 21%. The creatine degraded ([6]; pH 4.5) was 12%, the creatine degraded ([6]; pH 5.5) was 4% and the creatine bioavailability [7] was “sharply reduced with increasing doses”.

In the case of `CN1CC(=O)NC1=N` [creatinine], the red cell lysis [8] is listed as “same red cell lysing pattern”, the behavioural effect [9] is listed as “sedating or stupefying effect” and the spontaneous hemolysis (human blood cells) is listed as “significant increase in spontaneous hemolysis”. For the same compound, the erythrocyte survival time [10] was “significant decrease”.
